Experimental data from ChEMBL document CHEMBL4765407, “Design, synthesis and high antitumor potential of new unsymmetrical bisacridine derivatives towards human solid tumors, specifically pancreatic cancers and their unique ability to stabilize DNA G-quadruplexes” (Eur J Med Chem, 2020).

Assays:
DU-145 = assay: Cytotoxicity against human DU-145 cells assessed as reduction in cell viability measured after 72 hrs by SRB assay; type: functional, cell-based; settings: DU-145, 72 h
HCT-116 = assay: Cytotoxicity against human HCT-116 cells assessed as reduction in cell viability measured after 72 hrs by SRB assay; type: functional, cell-based; settings: HCT-116, 72 h
PANC-1 [1] = assay: Cytotoxicity against human PANC-1 cells assessed as reduction in cell viability measured after 72 hrs by SRB assay; type: functional, cell-based; settings: PANC-1, 72 h
MIA PaCa-2 = assay: Cytotoxicity against human MIA PaCa-2 cells assessed as reduction in cell viability measured after 72 hrs by SRB assay; type: functional, cell-based; settings: MIA PaCa-2, 72 h
BXPC-3 [2] = assay: Cytotoxicity against human BXPC-3 cells assessed as reduction in cell viability measured after 72 hrs by SRB assay; type: functional, cell-based; settings: BXPC-3, 72 h
ASPC1 [3] = assay: Cytotoxicity against human ASPC1 cells assessed as reduction in cell viability measured after 72 hrs by SRB assay; type: functional, cell-based; settings: ASPC1, 72 h
PANC-1 [4] = assay: Antitumour activity against human PANC-1 cells xenografted in Crl:Nu-Foxnl nu mouse assessed as inhibition of tumour growth at total effective dose of 16 mg/kg, iv measured on day 40; type: functional; settings: PANC-1, iv, 960 h, time 40 day, read-out: TGI
PANC-1 [5] = assay: Antitumour activity against human PANC-1 cells xenografted in Crl:Nu-Foxnl nu mouse assessed as inhibition of tumour growth at total effective dose of 120 mg/kg, iv measured on day 37; type: functional; settings: PANC-1, iv, 888 h, time 37 day, read-out: TGI
PANC-1 [6] = assay: Antitumour activity against human PANC-1 cells xenografted in Crl:Nu-Foxnl nu mouse assessed as inhibition of tumour growth at total effective dose of 160 mg/kg, iv measured on day 56; type: functional; settings: PANC-1, iv, 1344 h, time 56 day, read-out: TGI
MDA-MB-231 = assay: Cytotoxicity against human MDA-MB-231 cells assessed as reduction in cell viability measured after 72 hrs by SRB assay; type: functional, cell-based; settings: MDA-MB-231, 72 h
Capan-2 = assay: Cytotoxicity against human Capan-2 cells assessed as reduction in cell viability measured after 72 hrs by SRB assay; type: functional, cell-based; settings: Capan-2, 72 h
ASPC1 [7] = assay: Antitumour activity against human ASPC1 cells xenografted in Crl:Nu-Foxnl nu mouse assessed as inhibition of tumour growth at total effective dose of 48 mg/kg, iv measured on day 36; type: functional; settings: 864 h, time 36 day, read-out: TGI
PANC-1 [8] = assay: Antitumour activity against human PANC-1 cells xenografted in Crl:Nu-Foxnl nu mouse assessed as inhibition of tumour growth at total effective dose of 16 mg/kg, iv measured on day 47; type: functional; settings: PANC-1, iv, 1128 h, time 47 day, read-out: TGI
PANC-1 [9] = assay: Antitumour activity against human PANC-1 cells xenografted in Crl:Nu-Foxnl nu mouse assessed as inhibition of tumour growth at total effective dose of 160 mg/kg, iv measured on day 50; type: functional; settings: PANC-1, iv, 1200 h, time 50 day, read-out: TGI
BXPC-3 [10] = assay: Antitumour activity against human BXPC-3 cells xenografted in Crl:Nu-Foxnl nu mouse assessed as inhibition of tumour growth at total effective dose of 40 mg/kg, iv measured on day 34; type: functional; settings: BXPC-3, iv, 816 h, time 34 day, read-out: TGI
Quadruplex DNA [11] = assay: Stabilization of 5'-FAM/3'-TAMRA labeled c-Myc promoter G4 quadruplex DNA FPu18 (unknown origin) assessed as change in melting temperature at 10 microM measured after 15 mins by FRET assay; type: nucleic-acid assay
Quadruplex DNA [12] = assay: Stabilization of 5'-FAM/3'-TAMRA labeled telomeric G4 quadruplex DNA F21T (unknown origin) assessed as change in melting temperature at 10 microM measured after 15 mins by FRET assay; type: nucleic-acid assay
Quadruplex DNA [13] = assay: Stabilization of 5'-FAM/3'-TAMRA labeled K-Ras G4 quadruplex DNA (unknown origin) assessed as change in melting temperature at 10 microM measured after 15 mins by FRET assay; type: nucleic-acid assay
[14] = Stabilization of ds 5'-FAM-d(TATAGCTATA-HEG-TATAGCTATA)-TAMRA-3' (unknown origin) assessed as change in melting temperature at 10 microM measured after 15 mins by FRET assay; settings: Homo sapiens
PANC-1 [15] = assay: Antitumour activity against human PANC-1 cells xenografted in Crl:Nu-Foxnl nu mouse assessed as inhibition of tumour growth at total effective dose of 8 mg/kg, iv measured on day 52; type: functional; settings: PANC-1, iv, 1248 h, time 52 day, read-out: TGI

Question: Which IC50 (DU-145) does the source give for Cc1nc2ccc(NCCCN3CCN(CCC(N)c4ccc5nc6ccccc6cc5c4[N+](=O)[O-])CC3)c3c(=O)c4cc(O)ccc4n1c23 (stereo not drawn) here?
Answer: Its IC50 is 24 nM.

Question: What about the IC50 (HCT-116) of the same compound?
Answer: Its IC50 is 27 nM.

Question: And the IC50 (PANC-1 [1])?
Answer: The IC50 was 39 nM.

Question: What about the IC50 (MIA PaCa-2) of the same compound?
Answer: Its IC50 is 18 nM.

Question: And the IC50 (BXPC-3 [2])?
Answer: Its IC50 is 152 nM.

Question: And the IC50 (ASPC1 [3])?
Answer: Its IC50 is 151 nM.

Question: And the inhibition in vivo at 16 mg/kg (PANC-1 [4])?
Answer: The inhibition in vivo at 16 mg/kg was 68%.

Question: And the inhibition in vivo at 120 mg/kg (PANC-1 [5])?
Answer: Its inhibition in vivo at 120 mg/kg is 64%.

Question: What about the inhibition in vivo at 160 mg/kg (PANC-1 [6]) of the same compound?
Answer: Its inhibition in vivo at 160 mg/kg is 69%.

Question: With COc1ccc2c(c1)c(=O)c1c(NCCCN3CCN(CCC(N)c4ccc5nc6ccccc6cc5c4[N+](=O)[O-])CC3)ccc3ncn2c31 (stereo not drawn) as the compound, how does the IC50 (DU-145) read?
Answer: The IC50 was 21 nM.

Question: And the IC50 (HCT-116)?
Answer: Its IC50 is 28 nM.

Question: And the IC50 (MDA-MB-231)?
Answer: The IC50 was 38 nM.

Question: And the IC50 (PANC-1 [1])?
Answer: The IC50 was 40 nM.

Question: And the IC50 (MIA PaCa-2)?
Answer: Its IC50 is 36 nM.

Question: What about the IC50 (BXPC-3 [2]) of the same compound?
Answer: Its IC50 is 75 nM.

Question: What about the IC50 (ASPC1 [3]) of the same compound?
Answer: Its IC50 is 122 nM.

Question: What about the IC50 (Capan-2) of the same compound?
Answer: Its IC50 is 27 nM.

Question: And the inhibition in vivo at 48 mg/kg (ASPC1 [7])?
Answer: The inhibition in vivo at 48 mg/kg was 32%.

Question: And the inhibition in vivo at 16 mg/kg (PANC-1 [8])?
Answer: The inhibition in vivo at 16 mg/kg was 80%.

Question: And the inhibition in vivo at 160 mg/kg (PANC-1 [9])?
Answer: Its inhibition in vivo at 160 mg/kg is 64%.

Question: And the inhibition in vivo at 40 mg/kg (BXPC-3 [10])?
Answer: The inhibition in vivo at 40 mg/kg was 63%.

Question: And the ΔTm (Quadruplex DNA [11])?
Answer: Its ΔTm is 32.8 °C.

Question: And the ΔTm (Quadruplex DNA [12])?
Answer: The ΔTm was 33.3 °C.

Question: And the ΔTm (Quadruplex DNA [13])?
Answer: The ΔTm was 28.3 °C.

Question: And the ΔTm [14]?
Answer: Its ΔTm is 4.6 °C.

Question: With NC(CCN1CCN(CCCNc2ccc3nnn4c5ccccc5c(=O)c2c34)CC1)c1ccc2nc3ccccc3cc2c1[N+](=O)[O-] (stereo not drawn) as the compound, how does the IC50 (DU-145) read?
Answer: Its IC50 is 22 nM.

Question: What about the IC50 (HCT-116) of the same compound?
Answer: The IC50 was 22 nM.

Question: And the IC50 (MDA-MB-231)?
Answer: Its IC50 is 152 nM.

Question: What about the IC50 (PANC-1 [1]) of the same compound?
Answer: The IC50 was 138 nM.

Question: What about the IC50 (MIA PaCa-2) of the same compound?
Answer: The IC50 was 41 nM.

Question: What about the IC50 (BXPC-3 [2]) of the same compound?
Answer: Its IC50 is 120 nM.

Question: What about the IC50 (ASPC1 [3]) of the same compound?
Answer: The IC50 was 103 nM.

Question: And the IC50 (Capan-2)?
Answer: Its IC50 is 33 nM.

Question: And the inhibition in vivo at 8 mg/kg (PANC-1 [15])?
Answer: Its inhibition in vivo at 8 mg/kg is 39%.

Question: And the ΔTm (Quadruplex DNA [11])?
Answer: Its ΔTm is 33.2 °C.

Question: What about the ΔTm (Quadruplex DNA [12]) of the same compound?
Answer: The ΔTm was 26.1 °C.

Question: And the ΔTm (Quadruplex DNA [13])?
Answer: Its ΔTm is 26.6 °C.

Question: What about the ΔTm [14] of the same compound?
Answer: Its ΔTm is 3.9 °C.
